Data set [1] deals with SMN2 minigene mRNA (SMN2-A minigene) in HEK293H cells. The experiment in a line: SMN2 minigene mRNA splicing RT-qPCR assay in cultured cells. In kind it is cell-based, human. The note with it: Homo sapiens, HEK293-H; concentration increasing full length SMN2 mRNA 1.5-fold relative to vehicle-treated cells; HEK293H cells with SMN2-A minigene, 24 hours, 7-point concentration data; read-out: EC1.5x for production of full length SMN2 mRNA. In short, it runs like this: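 HEK293H cells stably carrying the SMN2-A minigene were treated for 24 h at 37 °C with a 7-point, 3.16-fold dilution series of compound. Multiplex RT-qPCR measured exon 7-containing minigene FL mRNA against GAPDH, expressed relative to vehicle by modified ΔΔCt; the EC1.5× is the concentration giving a 1.5-fold increase.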
(In general: In qPCR the cycle at which signal appears reflects the starting amount.)

The subject of data set [2] is Smn protein in SMA patient fibroblast cells (GM03813). The experiment in a line: Smn protein assay in cultured cells (SMN HTRF). In kind it is cell-based, human. The settings on record: SMA patient fibroblast cells, 48 hours; for EC1.5x for Smn protein expression: 7-point concentration curve, SMN HTRF, concentration producing 1.5 times Smn protein vs DMSO vehicle control; for maximum fold (Fold) increase of Smn protein: 7-point concentration data, fold relative to vehicle control. The method, boiled down:
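SMA patient fibroblasts (5,000 cells/well, DMEM-10% FBS) were treated for 48 h at 37 °C with a 7-point, 3.16-fold dilution series in triplicate. RIPA lysates were probed by HTRF (anti-SMN d2/kryptate, overnight, room temperature), reading 665/620 nm. EC1.5× is the concentration giving 1.5-fold Smn over DMSO vehicle.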
(Time-resolved FRET reads energy transfer from a long-lived donor to a nearby acceptor.)

Molecules are shown by their SMILES.

Consider 17 molecules from patent US11753407B2, “Compounds for treating spinal muscular atrophy” (PTC Therapeutics, Inc., priority 2012, dated 2023).

The term melting point denotes the temperature of the solid-liquid transition.

For `COc1ccc(-c2cc(=O)n3cc(N4CCN[C@H](C)C4)cc(C)c3n2)cc1OC` [Compound 314, 2-(3,4-dimethoxyphenyl)-9-methyl-7-[(3R)-3-methylpiperazin-1-yl]-4H-pyrido[1,2-a]pyrimidin-4-one], the melting point was 177 to 184 °C. Also, the EC (1.5-fold increase) in data set [1] is under 0.1 µM. Besides, in data set [2], the “EC1.5x for Smn protein expression” value is “*** (an EC1.5× between >0.3 μM and ≤1 μM is indicated by three stars (***))”; the “maximum fold (Fold) increase of Smn protein” value (“maximum fold (Fold) increase” below) was “**** (a fold increase between >1.5 and ≤1.65 is indicated by four stars (****))”.
`CCc1nc(C)cn2nc(-c3cc(=O)n4cc(N5CCN(C)[C@@H](C)C5)cc(C)c4n3)cc12` [Compound 789, 7-[(3S)-3,4-dimethylpiperazin-1-yl]-2-(4-ethyl-6-methylpyrazolo[1,5-a]pyrazin-2-yl)-9-methyl-4H-pyrido[1,2-a]pyrimidin-4-one] gave a melting point of 235 to 241 °C. In addition, in data set [1], the EC (1.5-fold increase) was under 0.1 µM. Moreover, in data set [2], the “EC1.5x for Smn protein expression” value was “**** (an EC1.5x≤0.3 μM is indicated by four stars (****))” and the “maximum fold (Fold) increase” value is reported as “***** (a fold increase >1.65 is indicated by five stars (*****))”.
In turn, `COc1ccc(-c2cc(=O)n3cc(N4CCNCC4)ccc3n2)cc1Cl` [Compound 110, 2-(3-chloro-4-methoxyphenyl)-7-(piperazin-1-yl)-4H-pyrido[1,2-a]pyrimidin-4-one] returned a melting point of 201 to 203 °C. Also, the EC (1.5-fold increase) in data set [1] fell in the range of 0.1 to 0.3 µM. Moreover, the “maximum fold (Fold) increase” value in data set [2] is “*** (a fold increase between >1.35 and ≤1.5 is indicated by three stars (***))”.
`CCc1cc(C2=CCN(CC)CC2)cn2c(=O)cc(-c3ccc(OC)c(OC)c3)nc12` [Compound 418, 2-(3,4-dimethoxyphenyl)-9-ethyl-7-(1-ethyl-1,2,3,6-tetrahydropyridin-4-yl)-4H-pyrido[1,2-a]pyrimidin-4-one] gave a melting point of 148 to 153 °C. Further, the EC (1.5-fold increase) in data set [1] is under 0.1 µM. Besides, the “maximum fold (Fold) increase” value in data set [2] was “*** (a fold increase between >1.35 and ≤1.5 is indicated by three stars (***))”.
Consider `Cn1ncc2cc(-c3cc(=O)n4cc(C5CCNCC5)ccc4n3)ccc21` [Cpd 603, 2-(1-methyl-1H-indazol-5-yl)-7-(piperidin-4-yl)-4H-pyrido[1,2-a]pyrimidin-4-one], for which the melting point fell in the range of 268 to 270 °C. Further, the EC (1.5-fold increase) in data set [1] lay in the range of 0.1 to 0.3 µM. Also, in data set [2], the “EC1.5x for Smn protein expression” value is “*** (an EC1.5× between >0.3 μM and ≤1 μM is indicated by three stars (***))”; the “maximum fold (Fold) increase” value is listed as “***** (a fold increase >1.65 is indicated by five stars (*****))”.
Take `COc1ccc(-c2cc(=O)n3cc(N4CCN[C@@H](C)C4)ccc3n2)cc1C(F)(F)F` [Compound 69, 2-[4-methoxy-3-(trifluoromethyl)phenyl]-7-[(3S)-3-methylpiperazin-1-yl]-4H-pyrido[1,2-a]pyrimidin-4-one]: the melting point is 195 to 200 °C. In data set [1], the EC (1.5-fold increase) lay in the range of 0.3 to 1 µM. Moreover, in data set [2], the “EC1.5x for Smn protein expression” value was “*** (an EC1.5× between >0.3 μM and ≤1 μM is indicated by three stars (***))”; the “maximum fold (Fold) increase” value is “**** (a fold increase between >1.5 and ≤1.65 is indicated by four stars (****))”.
Regarding `Cc1cn2nc(-c3cc(=O)n4cc(N5CCC6(CCNC6)C5)ccc4n3)cc2c(C)n1` (centres unmarked) [Compound 767, 7-(2,7-diazaspiro[4.4]non-2-yl)-2-(4,6-dimethylpyrazolo[1,5-a]pyrazin-2-yl)-4H-pyrido[1,2-a]pyrimidin-4-one], the melting point was in the range of 208 to 210 °C. Besides, in data set [1], the EC (1.5-fold increase) is under 0.1 µM. In addition, in data set [2], the “EC1.5x for Smn protein expression” value is reported as “**** (an EC1.5x≤0.3 μM is indicated by four stars (****))” and the “maximum fold (Fold) increase” value is listed as “***** (a fold increase >1.65 is indicated by five stars (*****))”.
Molecule `COc1ccc(-c2cc(=O)n3cc(N4C[C@@H](C)N[C@@H](C)C4)cc(C)c3n2)cc1OC` [Compound 332, 2-(3,4-dimethoxyphenyl)-7-[(3R,5S)-3,5-dimethylpiperazin-1-yl]-9-methyl-4H-pyrido[1,2-a]pyrimidin-4-one] yielded a melting point of 225 to 233 °C. Also, the EC (1.5-fold increase) in data set [1] is 0.3 to 1 µM. Moreover, in data set [2], the “maximum fold (Fold) increase” value is recorded as “* (A maximum fold increase of ≤1.2 is indicated by one star (*))”.
`CCN1C[C@@H]2CN(c3ccc4nc(-c5ccc(OC)c(F)c5)cc(=O)n4c3)C[C@@H]2C1` [Compound 311, 7-[(3aR,6aS)-5-ethylhexahydropyrrolo[3,4-c]pyrrol-2(1H)-yl]-2-(3-fluoro-4-methoxyphenyl)-4H-pyrido[1,2-a]pyrimidin-4-one] had a melting point of 157 to 167 °C. Also, the EC (1.5-fold increase) in data set [1] lay within 0.1 to 0.3 µM. Moreover, in data set [2], the “maximum fold (Fold) increase” value was “** (a fold increase between >1.2 and ≤1.35 is indicated by two stars (**))”.
Molecule `Cc1cc(-c2cc(=O)n3cc(N4CCN(C)[C@@H](C)C4)ccc3n2)cc2cn(C)nc12` [Compound 751, 2-(2,7-dimethyl-2H-indazol-5-yl)-7-[(3S)-3,4-dimethylpiperazin-1-yl]-4H-pyrido[1,2-a]pyrimidin-4-one] registered a melting point of 202 to 204 °C. The EC (1.5-fold increase) in data set [1] was under 0.1 µM. For the same molecule, in data set [2], the “EC1.5x for Smn protein expression” value is recorded as “**** (an EC1.5x≤0.3 μM is indicated by four stars (****))” and the “maximum fold (Fold) increase” value is “***** (a fold increase >1.65 is indicated by five stars (*****))”.
The molecule `CN(C)c1ccc(-c2cc(=O)n3cc(C4=CCNCC4)ccc3n2)cn1` [Compound 444, 2-[6-(dimethylamino)pyridin-3-yl]-7-(1,2,3,6-tetrahydropyridin-4-yl)-4H-pyrido[1,2-a]pyrimidin-4-one] registered a melting point of 255 to 257 °C. The EC (1.5-fold increase) in data set [1] was 0.3 to 1 µM. Moreover, in data set [2], the “EC1.5x for Smn protein expression” value was “** (an EC1.5× between >1 μM and ≤3 μM is indicated by two stars (**))”; the “maximum fold (Fold) increase” value was “*** (a fold increase between >1.35 and ≤1.5 is indicated by three stars (***))”.
In turn, `Cc1cn2nc(-c3cc(=O)n4cc(N5CCC(CN(C)C)CC5)ccc4n3)cc2c(C)n1` [Compound 570, 7-{4-[(dimethylamino)methyl]piperidin-1-yl}-2-(4,6-dimethylpyrazolo[1,5-a]pyrazin-2-yl)-4H-pyrido[1,2-a]pyrimidin-4-one] had a melting point of 206 to 208 °C. Moreover, the EC (1.5-fold increase) in data set [1] was in the range of 0.3 to 1 µM. Besides, in data set [2], the “EC1.5x for Smn protein expression” value was “** (an EC1.5× between >1 μM and ≤3 μM is indicated by two stars (**))”; the “maximum fold (Fold) increase” value was “**** (a fold increase between >1.5 and ≤1.65 is indicated by four stars (****))”.
With `COc1nc(C)cn2nc(-c3cc(=O)n4cc(N5CCN(C)CC5)ccc4n3)cc12` [Cpd 625, 2-(4-methoxy-6-methylpyrazolo[1,5-a]pyrazin-2-yl)-7-(4-methylpiperazin-1-yl)-4H-pyrido[1,2-a]pyrimidin-4-one], the melting point lay in the range of 242 to 244 °C. Further, the EC (1.5-fold increase) in data set [1] lay in the range of 1 to 3 µM. Further, in data set [2], the “maximum fold (Fold) increase” value is “** (a fold increase between >1.2 and ≤1.35 is indicated by two stars (**))”.
Consider `N#Cc1cccc(-c2cc(=O)n3cc(N4CCNCC4)ccc3n2)c1` [Compound 150, 3-[4-oxo-7-(piperazin-1-yl)-4H-pyrido[1,2-a]pyrimidin-2-yl]benzonitrile], for which the melting point fell in the range of 224 to 231 °C. The EC (1.5-fold increase) in data set [1] fell in the range of 0.3 to 1 µM. In data set [2], the “EC1.5x for Smn protein expression” value is “** (an EC1.5× between >1 μM and ≤3 μM is indicated by two stars (**))”; the “maximum fold (Fold) increase” value is “**** (a fold increase between >1.5 and ≤1.65 is indicated by four stars (****))”.
With `COc1ccc(-c2cc(=O)n3cc(N4CCN(O)CC4)ccc3n2)cc1OC` [Compound 146, 2-(3,4-dimethoxyphenyl)-7-(4-hydroxypiperazin-1-yl)-4H-pyrido[1,2-a]pyrimidin-4-one], the melting point lay in the range of 202 to 204 °C. Moreover, in data set [1], the EC (1.5-fold increase) is 1 to 3 µM. Moreover, the “maximum fold (Fold) increase” value in data set [2] is recorded as “* (A maximum fold increase of ≤1.2 is indicated by one star (*))”.
`Cc1cn2nc(-c3cc(=O)n4cc(N5CCN(C)[C@@H](C)C5)cc(C)c4n3)cc2c(C)n1` [Compound 563, 7-[(3S)-3,4-dimethylpiperazin-1-yl]-2-(4,6-dimethylpyrazolo[1,5-a]pyrazin-2-yl)-9-methyl-4H-pyrido[1,2-a]pyrimidin-4-one] showed a melting point of 244 to 253 °C. For the same molecule, in data set [1], the EC (1.5-fold increase) is 0.1 to 0.3 µM. Further, in data set [2], the “EC1.5x for Smn protein expression” value is listed as “**** (an EC1.5x≤0.3 μM is indicated by four stars (****))” and the “maximum fold (Fold) increase” value was “***** (a fold increase >1.65 is indicated by five stars (*****))”.
In the same order, the values of `CCN1CCC(c2cn3c(=O)cc(-c4cc(C)c5nc(C)cn5c4)nc3cn2)CC1` [Compound 593, 2-(2,8-dimethylimidazo[1,2-a]pyridin-6-yl)-7-(1-ethylpiperidin-4-yl)-4H-pyrazino[1,2-a]pyrimidin-4-one] are 242 to 244 °C, under 0.1 µM, “**** (an EC1.5x≤0.3 μM is indicated by four stars (****))” and “***** (a fold increase >1.65 is indicated by five stars (*****))”.
